Test results as given in patent US6939946B2, “Ring modified cyclic peptide analogs” (Eli Lilly and Company, priority 1998, dated 2005).
Where two headings read alike, the source gives them in different places. Numbered stars: 1 amine (or outer) side, 2 acyl side, 3 side chain; on linkers, the order of the positions; unused ones are H or OH. Bridge positions count the residues as written; N and C are the ends. Square brackets hold non-standard residues; d marks the D form. Peptide text beside a SMILES is read from it. * marks the point of attachment. ξ: configuration not given here. pTerphenylCO(4''-OnC5H11) = CCCCCOc1ccc(-c2ccc(-c3ccc(C(=O)*)cc3)cc2)cc1; Orn(4R-OH,5R-OH) = O=C([C@H](C[C@@H](O)[C@@H](O)N[*:3])N[*:1])[*:2]; Pro(3S-OH,4S-Me) = C[C@H]1CN[C@H](C(=O)O)[C@H]1O; hTyr(3R-OH) = N[C@H](C(=O)O)[C@H](O)Cc1ccc(O)cc1; X1 = CN1CCC(NC[C@H](N[*:1])C(=O)[*:2])CC1; Hyp = O=C(O)[C@@H]1C[C@@H](O)CN1; Thr(3ξ) = CC(O)[C@H](N)C(=O)O; dDap = NC[C@@H](N)C(=O)O; Dap = NC[C@H](N)C(=O)O

Key:
C. albicans = details: in vitro
C. parapsilosis = details: in vitro
Cryptococcus neoformans = details: in vitro
A. fumigatus [1] = details: in vitro
Histoplasma capsulatum = details: in vitro
A. Fumigatus [2] = details: murine model of organ recovery, cited from earlier work
Pneumocystis carinii = details: cited from earlier work
[3] = the molecule shown is the open-chain precursor; other bond; 21-membered ring; SnCl2/NaHCO3; CH2Cl2; 2.0 mM
[4] = the molecule shown is the open-chain precursor, amide bond, H2/Pd-C (EtOH/AcOH), then Et3N, Et2O, 2 steps

Row | Molecule | Minimal Inhibitory Concentration MIC C. albicans (C. albicans) [µg/mL] | Minimal Inhibitory Concentration MIC C. parapsilosis (C. parapsilosis) [µg/mL] | Minimal Inhibitory Concentration MIC Cryptococcus neoformans (Cryptococcus neoformans) [µg/mL] | Minimal Inhibitory Concentration MIC A. fumigatus (A. fumigatus [1]) [µg/mL] | Minimal Inhibitory Concentration MIC Histoplasma capsulatum (Histoplasma capsulatum) [µg/mL] | number of A. Fumigatus recovered from the kidneys (A. Fumigatus [2]; administered intraperitoneally) | effectiveness compared with amphotericin B on a mg/kg basis (A. Fumigatus [2]; both administered intraperitoneally) | reduction of the number of cysts in the lungs (Pneumocystis carinii; heavily infected, immunosuppressed rats, orally 5 mg/kg once daily for 4 days) | reduction in all life cycle forms (Pneumocystis carinii; prophylactic oral administration of 1 mg/kg twice daily for 4 weeks) [%] | ring closure, crude yield [3] [%] | ring closure, isolated yield ([4]; 22-membered ring, 1.1 mM) [%] | ring closure, isolated yield ([4]; 21-membered ring, 2.1 mM) [%]
1 | C[C@@H]1[C@H](O)[C@@H](C)/C=C/C=C/C=C/C=C/C=C/C=C/C=C/[C@H](O[C@@H]2O[C@H](C)[C@@H](O)[C@H](N)[C@@H]2O)C[C@@H]2O[C@](O)(C[C@@H](O)C[C@@H](O)[C@H](O)CC[C@@H](O)C[C@@H](O)CC(=O)O[C@H]1C)C[C@H](O)[C@H]2C(=O)O [Ampho B, Amphotericin B, reference compound] | 0.078 | 0.038 | 0.039 | 0.312 | 0.039 | – | – | – | – | – | – | –
2 | CCCCCOc1ccc(-c2ccc(-c3ccc(C(=O)N[C@H]4C[C@@H](O)[C@@H](O)NC(=O)[C@@H]5[C@@H](O)[C@@H](C)CN5C(=O)[C@H](C(C)O)NC(=O)[C@H]([C@H](O)Cc5ccc(O)cc5)NC(=O)[C@@H]5C[C@@H](O)CN5C(=O)[C@H](C(C)O)NC4=O)cc3)cc2)cc1 (stereo partly drawn) [Compound C1, reference compound] ({pTerphenylCO(4''-OnC5H11)}-[Orn(4R-OH,5R-OH)][Thr(3ξ)][Hyp][hTyr(3R-OH)][Thr(3ξ)][Pro(3S-OH,4S-Me)]; lactam 1-C) | 0.01 | 0.156 | >20 | 0.02 | 0.01 | significantly reduced | as effective as amphotericin B | more than 99% | > 90 | – | – | –
3 | CCCCCOc1ccc(-c2ccc(-c3ccc(C(=O)N[C@H]4CNC(=O)[C@H](CN)NC(=O)[C@@H]5[C@@H](O)[C@@H](C)CN5C(=O)[C@H](C(C)O)NC(=O)[C@H]([C@H](O)Cc5ccc(O)cc5)NC(=O)[C@@H]5C[C@@H](O)CN5C(=O)[C@H](C(C)O)NC4=O)cc3)cc2)cc1 (stereo partly drawn) [Compound E8-8] ({pTerphenylCO(4''-OnC5H11)}-[Dap][Thr(3ξ)][Hyp][hTyr(3R-OH)][Thr(3ξ)][Pro(3S-OH,4S-Me)][Dap]; lactam 1-C) | 0.078 | 0.625 | >20 | 5.0 | 0.312 | – | – | – | – | – | – | –
4 | CCCCCOc1ccc(-c2ccc(-c3ccc(C(=O)N[C@H]4CNC(=O)[C@H](CNC5CCN(C)CC5)NC(=O)[C@@H]5[C@@H](O)[C@@H](C)CN5C(=O)[C@H](C(C)O)NC(=O)[C@H]([C@H](O)Cc5ccc(O)cc5)NC(=O)[C@@H]5C[C@@H](O)CN5C(=O)[C@H](C(C)O)NC4=O)cc3)cc2)cc1 (stereo partly drawn) [Compound E8-9] ({pTerphenylCO(4''-OnC5H11)}-[Dap][Thr(3ξ)][Hyp][hTyr(3R-OH)][Thr(3ξ)][Pro(3S-OH,4S-Me)][X1]; lactam 1-C) | 0.156 | 5.0 | >20 | 5.0 | 0.625 | – | – | – | – | – | – | –
5 | CCCCCOc1ccc(-c2ccc(-c3ccc(C(=O)N[C@H]4CCNNC(=O)[C@@H]5[C@@H](O)[C@@H](C)CN5C(=O)[C@H](C(C)O)NC(=O)[C@H]([C@H](O)Cc5ccc(O)cc5)NC(=O)[C@@H]5C[C@@H](O)CN5C(=O)[C@H](C(C)O)NC4=O)cc3)cc2)cc1 (some centres unmarked) [E2-10(b)] | 0.01 | 0.156 | – | 0.156 | 0.156 | – | – | – | – | – | – | –
6 | CCCCCOc1ccc(-c2ccc(-c3ccc(C(=O)N[C@H]4CCN(CC)NC(=O)[C@@H]5[C@@H](O)[C@@H](C)CN5C(=O)[C@H](C(C)O)NC(=O)[C@H]([C@H](O)Cc5ccc(O)cc5)NC(=O)[C@@H]5C[C@@H](O)CN5C(=O)[C@H](C(C)O)NC4=O)cc3)cc2)cc1 (some centres unmarked) [E2-11(b)] | 0.001 | 0.156 | – | 0.312 | 0.02 | – | – | – | – | – | – | –
7 | CCCCCOc1ccc(-c2ccc(-c3ccc(C(=O)N[C@H]4CCN(CCC)NC(=O)[C@@H]5[C@@H](O)[C@@H](C)CN5C(=O)[C@H](C(C)O)NC(=O)[C@H]([C@H](O)Cc5ccc(O)cc5)NC(=O)[C@@H]5C[C@@H](O)CN5C(=O)[C@H](C(C)O)NC4=O)cc3)cc2)cc1 (some centres unmarked) [E2-11(c)] | 0.312 | 1.25 | – | 0.156 | 0.312 | – | – | – | – | – | – | –
8 | CCCCCOc1ccc(-c2ccc(-c3ccc(C(=O)N[C@@H]4CNC(=O)CNC(=O)[C@@H]5[C@@H](O)[C@@H](C)CN5C(=O)[C@H](C(C)O)NC(=O)[C@H]([C@H](O)Cc5ccc(O)cc5)NC(=O)[C@@H]5C[C@@H](O)CN5C(=O)[C@H](C(C)O)NC4=O)cc3)cc2)cc1 (stereo partly drawn) [E7-6(a)] ({pTerphenylCO(4''-OnC5H11)}-[dDap][Thr(3ξ)][Hyp][hTyr(3R-OH)][Thr(3ξ)][Pro(3S-OH,4S-Me)]G; lactam 1-C) | >20 | >20 | >20 | >20 | >20 | – | – | – | – | – | – | –
9 | CCCCCOc1ccc(-c2ccc(-c3ccc(C(=O)N[C@H]4CNC(=O)CNC(=O)[C@@H]5[C@@H](O)[C@@H](C)CN5C(=O)[C@H](C(C)O)NC(=O)[C@H]([C@H](O)Cc5ccc(O)cc5)NC(=O)[C@@H]5C[C@@H](O)CN5C(=O)[C@H](C(C)O)NC4=O)cc3)cc2)cc1 (stereo partly drawn) [E7-6(b)] ({pTerphenylCO(4''-OnC5H11)}-[Dap][Thr(3ξ)][Hyp][hTyr(3R-OH)][Thr(3ξ)][Pro(3S-OH,4S-Me)]G; lactam 1-C) | 0.312 | >20 | >20 | 5.0 | 1.25 | – | – | – | – | – | – | –
10 | CCCCCOc1ccc(-c2ccc(-c3ccc(C(=O)NC[C@H]4NC(=O)CNC(=O)[C@@H]5[C@@H](O)[C@@H](C)CN5C(=O)[C@H](C(C)O)NC(=O)[C@H]([C@H](O)Cc5ccc(O)cc5)NC(=O)[C@@H]5C[C@@H](O)CN5C(=O)[C@H](C(C)O)NC4=O)cc3)cc2)cc1 (stereo partly drawn) [E7-14(a)] (cyclo(G[dDap](pTerphenylCO(4''-OnC5H11))[Thr(3ξ)][Hyp][hTyr(3R-OH)][Thr(3ξ)][Pro(3S-OH,4S-Me)])) | 0.312 | >20 | >20 | >20 | 0.312 | – | – | – | – | – | – | –
11 | CCCCCOc1ccc(-c2ccc(-c3ccc(C(=O)NC[C@@H]4NC(=O)CNC(=O)[C@@H]5[C@@H](O)[C@@H](C)CN5C(=O)[C@H](C(C)O)NC(=O)[C@H]([C@H](O)Cc5ccc(O)cc5)NC(=O)[C@@H]5C[C@@H](O)CN5C(=O)[C@H](C(C)O)NC4=O)cc3)cc2)cc1 (stereo partly drawn) [E7-14(b)] (cyclo([Dap](pTerphenylCO(4''-OnC5H11))[Thr(3ξ)][Hyp][hTyr(3R-OH)][Thr(3ξ)][Pro(3S-OH,4S-Me)]G)) | 0.156 | >20 | >20 | >20 | 0.078 | – | – | – | – | – | – | –
12 | Boc-Asp-semialdehyde(dimethyl acetal)-Thr(TBS)-Hyp(TBS)-hTyr(3-OTBS,4'-OTBS)-Thr(TBS)-Pro(3-OTBS,4-Me)-NHNH2? | – | – | – | – | – | – | – | – | – | 100 | – | –
13 | Boc-Cys(SO2; S-CH2CH2NH2)-Thr(TBS)-Hyp(TBS)-hTyr(3-OTBS,4'-OTBS)-Thr(TBS)-Pro(3-OTBS,4-Me)-N(Boc)2? | – | – | – | – | – | – | – | – | – | – | 67 | –
14 | Boc-Orn-Val-Hyp(TBS)-hTyr(3-OTBS,4'-OTBS)-Thr(TBS)-Pro(3-OTBS,4-Me)-N(Boc)2? | – | – | – | – | – | – | – | – | – | – | – | 43
